Entries after “also recorded” stand apart in the source; their conditions may differ.
What was measured:
human recombinant PARP2 = molecular target: T1, human recombinant PARP2 (Homo sapiens, UniProt Q9UGN5); test: PARP2 activity by inclusion of α-[32P]-NAD+ in poly(ADP-ribose); assay type: biochemical; conditions: in the presence of 1 mM compound; read-out: Residual activity of PARP2
T1 construct: made in house
Procedure: (§1) Since it has previously been shown that nucleoside derivatives can inhibit enzymes of the PARP family, we also checked whether the studied compounds were able to inhibit the enzymes PARP1 and PARP2. […] Thus, when using our compounds, one cannot expect side effects from PARP1/2.
(§2) Purified human recombinant PARP1/2 [65] and [^32P] NAD^+ [27] were prepared as described earlier. The activity of PARP1/2 was evaluated by the rate of incorporation of the radioactive label into the acid-insoluble reaction product—PAR as described previously.

[1] = molecular target: T2, purified recombinant human Tdp1 (Homo sapiens, UniProt Q9NUW8); test: Real-time detection of Tdp1 activity (removal of BHQ1 from a 5′-FAM 16-nt oligonucleotide, fluorescence); assay type: biochemical; conditions: for IC50: 1.5 nM Tdp1, 50 nM oligonucleotide, 25 °C, three independent experiments
T2 construct: made in house
Procedure: In this work, four natural nucleosides (1-4) and […] aromatic lipophilic derivatives of purine nucleosides (5a-f, 6a-d) were tested for Tdp1 activity. The used test system was based on the enzyme’s ability to remove Black Hole Quencher 1 (BHQ1) from the 3′ end of a 5′ FAM 16-nt oligonucleotide. As a result, an increase in FAM fluorescence was detected and the obtained kinetic curves were used to calculate the IC50 parameter (the concentration of the inhibitor at which the enzyme activity is reduced by half). We have found potent Tdp1 inhibitors with IC50 in the range from 0.3 to 7 μM (Table 1).
Purified human recombinant Tdp1 was prepared as described earlier. Real-time detection of Tdp1 activity was reported in our previous work. The approach consists of a fluorescence intensity measurement of the reaction of quencher removal from the fluorophore-quencher coupled DNA oligonucleotide catalyzed by Tdp1 in the presence of the inhibitor (the control samples contained 1% DMSO). The biosensor was single-stranded oligonucleotide (5′-[FAM] AAC GTC AGGGTC TTC C [BHQ]-3′) containing fluorophore at the 5′ end (5,6-FAM) and a Black Hole Quencher 1 (BHQ) at the 3′ end, and was synthesized in the Laboratory of nucleic acid chemistry at the Institute of Chemical Biology and Fundamental Medicine SB RAS, Novosibirsk, Russia. The reactions were incubated at a constant temperature 25 °C in a POLARstar OPTIMA fluorimeter, BMG LABTECH, GmbH, to measure fluorescence every 55 s (Ex485/Em520 nm) during the linear phase (here, the data are from 0 to 8 min). […] The IC50 values were determined using a six-point concentration response curve in three independent experiments and calculated using MARS Data Analysis 2.0 (BMG LABTECH).

HeLa cells [2] = test: Effect of compounds on topotecan cytotoxicity (EZ4U test); assay type: cell-based, human; conditions: compound 10 μM in combination with Tpc
Description: (§3) Tdp1 inhibitors are intended to be used in therapeutic cocktails to sensitize tumors to the action of anticancer Top1 poisons. […] To assess the toxicity of the compounds, their effect on the survival of the HeLa cell line (human cervical cancer) was studied using the colorimetric test of metabolic activity of cells EZ4U, which reflects the survival of cells in the presence of the studied compounds. The EZ4U assay is based on the ability of living cells to reduce the colorless tetrazolium salt XTT [sodium 3,3′-{1-(phenylamino)-carbonyl-3,4-tetrazolium) -bis(4-methoxy-6-nitro)-benzene sulfonic acid hydrate] to an orange water-soluble formazan product. This method was used to investigate the intrinsic cytotoxicity of promising inhibitors discovered in the course of this work, as well as the toxicity of their combination with Tpc.
As already mentioned, we expected to increase the efficacy and/or reduce the dosage of Tpc with Tdp1 inhibitors. To do this, we studied the effect of nucleoside derivatives on Tpc cytotoxicity. […] We attribute this to the probable presence of protein targets other than Tdp1 in the cell.
(§4) Cytotoxicity of the compounds was examined on human cell lines HeLa using an EZ4U colorimetric test (Biomedica, Vienna, Austria). The HeLa cell line was obtained from the Russian Cell Culture Collection (RCCC) Institute of Cytology RAS, St. Petersburg, Russia. The cells were grown in DMEM/F12 medium (Gibco, Thermo Fisher Scientific, Waltham, MA, USA), with 1x GlutaMAX (Gibco, Thermo Fisher Scientific, Waltham, MA, USA), 50 IU/mL penicillin, 50 μg/mL streptomycin (MP Biomedicals), and in the presence of 10% fetal bovine serum (Biolot, Saint-Petersburg, Russia) in a 5% CO2 atmosphere. Since lipophilic nucleosides are soluble in DMSO, cells were grown in the presence of 1% DMSO in the control wells. After the formation of a 30–50% monolayer, the tested compounds were added to the medium, and the cell culture was monitored for 3 days. The values were normalized to their own control in each case. At least three independent experiments were carried out. The 50% cytotoxic concentration (CC50) was defined as the compound concentration that reduced the cell viability by 50% when compared to the untreated controls. The CC50 value was determined using OriginPro 8.6.0 software (OriginLab, Northampton, MA, USA). The measurements were carried out in three independent experiments.

human recombinant PARP1 = molecular target: T3, human recombinant PARP1 (Homo sapiens, UniProt P09874); test: PARP1 activity by inclusion of α-[32P]-NAD+ in poly(ADP-ribose); assay type: biochemical; conditions: in the presence of 1 mM compound; read-out: Residual activity of PARP1
T3 construct: made in house
Procedure: as §1, §2

[3] = Cell culture cytotoxicity assay (EZ4U colorimetric test); assay type: cell-based; conditions: human, HeLa cells
Description: as §3, §4

HeLa cells [4] = test: Alkaline Comet assay, accumulation of DNA damage; assay type: cell-based; conditions: for DNA in tail: Topotecan 10 μM alone (0 μM compound), 1 h
Description: We studied the effect of Tdp1 inhibitors 5f and 6d on the accumulation of DNA damage by single-cell gel electrophoresis (Comet assay). […] This method has proven to be a simple, fast, and a quite sensitive way to detect DNA damage at the level of a single cell, allowing one to analyze almost any eukaryotic cell culture. Several analysis options allow one to visualize various types of DNA damage: single- and double-stranded breaks and alkaline-labile sites. This allows this method to be widely used in fundamental studies of DNA damage and repair and in testing the genotoxicity of new chemical and pharmaceutical drugs in vitro and in vivo [51, 52]. To study potential drugs, the alkaline version of the method (pH > 13) proposed by Singh and co-authors is widely used. This method allows the detection of all types of DNA damage with high sensitivity. In cells with a large amount of DNA damage, the structural organization and integrity of DNA are disrupted, which leads to its relaxation and/or fragmentation. As a result, cellular DNA in an electric field gives the observed objects the appearance of a “comet”.
Before studying the effect of Tdp1 inhibitors on the accumulation of DNA damage, it was necessary to find out how long the generation of DNA damage by Tpc and their repair take place in HeLa cells. To do this, cell culture was treated with Tpc at 1, 10, and 100 μM concentrations for 30 min, 1, 2, and 3 h and the level of damage to individual cells was monitored by Comet assay. It was shown that Tpc caused the greatest amount of damage after 30 minutes’ treatment. After this time, the repair systems began to correct these lesions and as a result, after 3 h most of them have been eliminated (Figure S9). […] The level of DNA damage at this point was enough to be detected, the data were reproducible, and can be evaluated by the Comet assay. The effect could be enhanced by the tested compounds without leading to cell death. It was important for us to see this enhancement in the presence of our compounds.
HeLa cell culture was grown in a 24-well plate to a concentration of 0.05 million/mL, then treated with the tested compounds and incubated for 1 h. To obtain a cell suspension, the cells were treated with trypsin (30 µL in each well for 5 min at 37 °C), and then 200 µL of PBS + 10% FBS were added to each well.
The resulting cell suspension (50 µL) was mixed with 250 µL of a 1% solution of molten low melting agarose (CertifiedTM LMAgarose; BIO-RAD), 250 µL of this mixture was transferred to the slides pre-coated with a 1% normal melting agarose (Agarose; Helicon), and left for several minutes at 4 °C to solidify. The resulting slides were incubated in a lysing solution (2.5 M NaCl, 100 mM EDTA, 10 mM Tris base, 1% Triton, 5% DMSO, pH 10.0) for an hour at 4 °C. Then the slides were immersed in an electrophoretic buffer (300 mM NaOH, 1 mM EDTA, pH > 13) for 45 min at 4 °C. Electrophoresis was performed at 20 V, 450 mA for 10 min while cooling on ice. After that, the slides were immersed 2 times for 5 min in 0.4 M Tris-HCl pH 7.5 solution for neutralization, washed twice with cold water, and stained with SYBR Green I (excitation maximum at 497 nm, emission maximum at 520 nm; Thermo Fisher Scientific KK).
The images were obtained using a CELENA © S digital microscope (Logos Biosystems, Inc., Annandale, VA, USA) and analyzed with Comet analysis software (Trevigen, Inc., Gaithersburg, MD, USA. In all experiments, 2 slides were evaluated for each sample by counting at least 200 cells on the glass. As a parameter for measuring the level of DNA damage, the median value of the percentage of DNA in the tail was chosen (% Tail DNA = 100 × the intensity of DNA fluorescence in the tail of the comet/the intensity of fluorescence of the total DNA of the comet).

T3 sequence (P09874 whole entry): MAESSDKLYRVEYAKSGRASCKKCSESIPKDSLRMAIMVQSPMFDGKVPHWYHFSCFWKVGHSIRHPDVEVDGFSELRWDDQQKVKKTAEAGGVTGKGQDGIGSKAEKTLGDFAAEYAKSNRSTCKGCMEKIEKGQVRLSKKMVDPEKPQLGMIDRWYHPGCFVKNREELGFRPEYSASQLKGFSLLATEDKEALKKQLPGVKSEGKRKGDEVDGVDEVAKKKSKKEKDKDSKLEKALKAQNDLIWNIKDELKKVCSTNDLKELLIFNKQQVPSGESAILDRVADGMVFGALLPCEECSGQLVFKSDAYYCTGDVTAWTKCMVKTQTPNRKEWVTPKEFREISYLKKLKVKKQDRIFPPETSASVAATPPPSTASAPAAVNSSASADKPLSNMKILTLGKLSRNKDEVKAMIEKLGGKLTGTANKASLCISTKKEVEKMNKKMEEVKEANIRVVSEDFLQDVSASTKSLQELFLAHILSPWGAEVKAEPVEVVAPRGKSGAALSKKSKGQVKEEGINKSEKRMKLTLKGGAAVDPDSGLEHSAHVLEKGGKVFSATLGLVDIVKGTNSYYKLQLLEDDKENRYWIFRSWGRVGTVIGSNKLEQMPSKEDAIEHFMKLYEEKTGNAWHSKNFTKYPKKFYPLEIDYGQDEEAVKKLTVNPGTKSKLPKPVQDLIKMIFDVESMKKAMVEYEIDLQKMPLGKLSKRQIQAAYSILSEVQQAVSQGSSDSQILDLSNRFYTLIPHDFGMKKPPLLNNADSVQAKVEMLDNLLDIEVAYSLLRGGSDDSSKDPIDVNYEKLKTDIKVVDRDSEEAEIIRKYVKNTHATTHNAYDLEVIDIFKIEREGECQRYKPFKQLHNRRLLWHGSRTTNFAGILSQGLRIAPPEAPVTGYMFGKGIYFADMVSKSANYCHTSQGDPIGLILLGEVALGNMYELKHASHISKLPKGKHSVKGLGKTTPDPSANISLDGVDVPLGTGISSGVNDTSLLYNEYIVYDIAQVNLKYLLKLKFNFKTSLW
T2 sequence (Q9NUW8 whole entry): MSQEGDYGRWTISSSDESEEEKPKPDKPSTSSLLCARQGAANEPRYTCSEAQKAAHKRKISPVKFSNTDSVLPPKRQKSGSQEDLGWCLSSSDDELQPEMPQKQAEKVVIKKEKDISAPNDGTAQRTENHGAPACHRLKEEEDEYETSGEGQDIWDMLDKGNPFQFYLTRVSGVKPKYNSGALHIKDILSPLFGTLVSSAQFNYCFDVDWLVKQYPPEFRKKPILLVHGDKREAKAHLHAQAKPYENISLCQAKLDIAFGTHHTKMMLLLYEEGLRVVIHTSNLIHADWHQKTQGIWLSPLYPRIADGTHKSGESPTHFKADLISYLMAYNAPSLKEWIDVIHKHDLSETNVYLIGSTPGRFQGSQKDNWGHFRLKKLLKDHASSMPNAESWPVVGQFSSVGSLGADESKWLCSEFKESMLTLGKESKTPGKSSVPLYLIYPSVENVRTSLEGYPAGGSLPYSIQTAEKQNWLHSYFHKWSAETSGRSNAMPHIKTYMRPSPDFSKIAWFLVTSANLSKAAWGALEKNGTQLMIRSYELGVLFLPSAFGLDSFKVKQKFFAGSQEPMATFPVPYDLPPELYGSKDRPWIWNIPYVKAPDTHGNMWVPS
T1 sequence (Q9UGN5 whole entry): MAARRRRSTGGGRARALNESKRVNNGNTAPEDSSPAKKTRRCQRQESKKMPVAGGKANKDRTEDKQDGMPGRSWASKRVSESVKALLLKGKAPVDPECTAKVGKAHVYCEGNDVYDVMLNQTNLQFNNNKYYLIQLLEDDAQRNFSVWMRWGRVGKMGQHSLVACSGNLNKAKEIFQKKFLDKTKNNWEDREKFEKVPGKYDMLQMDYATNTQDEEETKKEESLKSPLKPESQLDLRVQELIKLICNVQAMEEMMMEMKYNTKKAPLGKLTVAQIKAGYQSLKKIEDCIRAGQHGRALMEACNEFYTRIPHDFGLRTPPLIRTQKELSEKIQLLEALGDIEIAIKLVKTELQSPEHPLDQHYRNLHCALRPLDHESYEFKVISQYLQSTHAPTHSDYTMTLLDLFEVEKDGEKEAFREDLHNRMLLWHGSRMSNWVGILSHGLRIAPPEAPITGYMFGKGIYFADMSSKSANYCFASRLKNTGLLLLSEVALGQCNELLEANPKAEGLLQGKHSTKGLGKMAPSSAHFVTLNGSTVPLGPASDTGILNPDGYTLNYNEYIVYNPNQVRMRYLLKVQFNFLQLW

SMILES	remaining activity at 1000 µM (human recombinant PARP2) [%]	IC50 [1] [µM]	Enhancement of Tpc Cytotoxicity by 10 μM Compounds (HeLa cells [2]) [Times]	remaining activity at 1000 µM (human recombinant PARP1) [%]	CC50 at 3 days [3] [µM]	Tdp1 inhibition, in words [1]	DNA in tail (HeLa cells [4]; series of compound 5f) [%]	DNA in tail (HeLa cells [4]; series of compound 6d) [%]	Time after which most DNA lesions have been eliminated (HeLa cells [4]; Tpc at 1, 10 and 100 μM) [h]	Treatment time with the greatest amount of DNA damage (HeLa cells [4]; Tpc at 1, 10 and 100 μM for 30 min, 1, 2 and 3 h) [min]
O=C(OC[C@H]1O[C@@H](n2cnc3c(Cl)ncnc32)[C@H](OC(=O)c2ccccc2)[C@@H]1OC(=O)c1ccccc1)c1ccccc1 [compound 6b, 6-Chloro-2′,3′,5′-tri-O-benzoyl-β-D-ribofuranosylpurine riboside]	75 ± 16	2 ± 0.6	1.9	86 ± 8	56 ± 26	–	–	–	–	–
OC[C@H]1O[C@@H](n2cnc3c(NCc4ccc(-c5ccccc5)cc4)ncnc32)[C@H](O)[C@@H]1O [5a]	101 ± 24	> 50	–	112 ± 11	> 100	practically did not lead to a decrease in Tdp1 activity; also recorded: did not inhibit Tdp1	–	–	–	–
Nc1nc2c(ncn2[C@H]2C[C@H](O)[C@@H](CO)O2)c(=O)[nH]1 [compound 2, reference compound]	87 ± 18	> 50	–	102 ± 11	–	–	–	–	–	–
Nc1nc2c(ncn2[C@@H]2O[C@H](CO)[C@@H](O)[C@H]2O)c(=O)[nH]1 [compound 1, reference compound]	91 ± 5	> 50	–	86 ± 5	–	–	–	–	–	–
OC[C@H]1O[C@@H](n2cnc3c(NC(c4ccccc4)(c4ccccc4)c4ccccc4)ncnc32)[C@H](O)[C@@H]1O [compound 5b]	107 ± 9	> 50	1.7	99 ± 8	59.6 ± 0.6	practically did not lead to a decrease in Tdp1 activity	–	–	–	–
OC[C@H]1O[C@@H](n2cnc3c(NCc4cc5ccc6cccc7ccc(c4)c5c67)ncnc32)[C@H](O)[C@@H]1O [5d]	100 ± 15	> 50	–	88 ± 21	56 ± 10	practically did not lead to a decrease in Tdp1 activity; also recorded: did not inhibit Tdp1	–	–	–	–
CC[C@@]1(O)C(=O)OCc2c1cc1n(c2=O)Cc2cc3c(CN(C)C)c(O)ccc3nc2-1 [Tpc, topotecan]	–	–	–	–	–	–	35±5	39±1	3	30
OC[C@H]1O[C@@H](n2cnc3c(NCc4c5ccccc5cc5ccccc45)ncnc32)[C@H](O)[C@@H]1O [5c]	104 ± 16	22 ± 3	2.2	92 ± 14	58 ± 2	–	–	–	–	–
Nc1ncnc2c1ncn2[C@H]1C[C@H](O)[C@@H](CO)O1 [compound 4, reference compound]	79 ± 15	> 50	–	84 ± 12	–	–	–	–	–	–
Nc1ncnc2c1ncn2[C@@H]1O[C@H](CO)[C@@H](O)[C@H]1O [compound 3, reference compound]	95 ± 9	> 50	–	94 ± 9	–	–	–	–	–	–
O=C(OC[C@H]1O[C@@H](n2cnc3c(O)ncnc32)[C@H](OC(=O)c2ccccc2)[C@@H]1OC(=O)c1ccccc1)c1ccccc1 [6a, 2′,3′,5′-Tri-O-benzoylinosine]	96 ± 30	7 ± 1	1.8	87 ± 10	58 ± 5	–	–	–	–	–

— article PMC9822400, “The Lipophilic Purine Nucleoside—Tdp1 Inhibitor—Enhances DNA Damage Induced by Topotecan In Vitro and Potentiates the Antitumor Effect of Topotecan In Vivo” (Molecules, 2022)
